# Reference: patent US10307357B2, “Prebiotic oral care compositions containing an alkyl glycoside” (COLGATE-PALMOLIVE COMPANY, priority 2013, dated 2019)
# How the values were obtained:
# Type in all cases: cell-based
# [1] = system: Aggregatibacter actinomycetemcomitans; test: Twenty-four hour optical density growth in BHI; details: over 24 hours, control = 1
# Description: (§1) The extent of growth of the tested bacteria in response to selected glycosides (β-methyl-D-galactoside and α-methyl-D-galactoside) was investigated by setting up growth curves in a nutritionally rich medium (brain heart infusion broth (BHI), Oxoid), over 24 hours. Late exponential growth phase liquid cultures were prepared by transferring the respective bacterium from blood agar plates to BHI and overnight incubation at 37° C. in an anaerobic atmosphere for A. viscosus, V. parvula, F. nucleatum, P. gingivalis, P. intermedia, T. forsythia, A. naeslundii, and C. sputigena, and in a 5% CO2 environment for S. salivarius, S. sanguinis, S. mitis, A. actinomycetemcomitans, S. mutans, S. sobrinus and S. gordonii. Overnight cultures were transferred to BHI and adjusted to a concentration of 1×10^7 CFU/ml (colony forming units per ml) by measuring the optical density at 600 nm (OD600) (BioRad SmartSpec 3000). For each strain, 200 μl of the bacterial suspension was added to a 96-well plate containing 20 μl of the respective glycosides. Final concentrations of the glycosides were set to 5, 10, 20 and 25 μmol/ml. […] Plates were incubated as previously described. For each combination of bacterium/glycoside, and for each of their respective controls (i.e. the particular bacterium in the nutritionally rich medium with no glycoside), the optical density was measured at 630 nm (OD630) at 0 h and 24 h (Thermo Scientific Multiskan Ascent). Additionally, the OD630 for combinations of bacterium/glycosides grown in a 5% CO2 environment were also measured every hour between 0 h and 9 h. […] The experiment was carried out on three different days (thus providing 3 biological replicas) and on each day the experiment was carried out in quadruple (thus providing 4 technical replicas) for each combination of bacterium with glycoside and for each control. For each day and for each combination, the average (mean) of the values obtained (as detailed above) for the four technical replicas was calculated to provide a single value for each combination on each day. The values shown in Tables 5 to 6, below, are the average (mean) of the three single values obtained for each combination of bacterium with glycoside (α-Methyl-D-Galactoside=α-MDG; β-Methyl-D-Galactoside=β-MDG).
# Porphyromonas gingivalis [2] = test: Twenty-four hour optical density growth in BHI; details: over 24 hours, control = 1
# Description: as §1
# Streptococcus gordonii = test: Twenty-four hour optical density growth in BHI; details: over 24 hours, control = 1
# Description: as §1
# Streptococcus mitis [3] = test: Twenty-four hour optical density growth in BHI; details: over 24 hours, control = 1
# Description: as §1
# Streptococcus mutans = test: Twenty-four hour optical density growth in BHI; details: over 24 hours, control = 1
# Description: as §1
# Streptococcus salivarius = test: Twenty-four hour optical density growth in BHI; details: over 24 hours, control = 1
# Description: as §1
# Actinomyces naeslundii = test: Twenty-four hour biofilm growth (crystal violet); details: 24 hours, control = 1
# Description: (§2) The increase in biofilm formation of the tested bacteria in response to selected glycosides (β-methyl-D-galactoside and α-methyl-D-galactoside) was investigated by setting up biofilm growth assays in a nutritionally rich medium (brain heart infusion broth (BHI), Oxoid), over 24 hours. Late exponential growth phase liquid cultures were prepared by transferring the respective bacterium from blood agar plates to BHI and overnight incubation at 37° C. in an anaerobic atmosphere for A. viscosus, V. parvula, P. gingivalis, P. intermedia, T. forsythia, A. naeslundii, and C. sputigena, and in a 5% CO2 environment for S. salivarius, S. sanguinis, S. mitis, A. actinomycetemcomitans, S. mutans, and S. gordonii. Overnight cultures were transferred to BHI and adjusted to a concentration of 1×10^7 CFU/ml by measuring the optical density at 600 nm (OD600) (BioRad SmartSpec 3000). For each strain, 200 μl of the bacterial suspension was added to a 96-well plate containing 20 μl of the respective glycosides. Final concentrations of the glycosides were set to 5, 10, 20 and 25 μmol/ml. […] Additionally, for each bacterium tested, a background control, to correct for background staining, was added. This background control contained the bacterium tested and 0.03 weight % chlorhexidine, as an antiseptic. Plates were incubated as previously described. After 24 hrs the supernatant was removed from the wells of the plates. The wells were washed twice with 1×100 μL PBS (phosphate buffered saline), fixed for 20 minutes with 96% vol. ethanol (96% vol. solution in water) and the biofilm retained at the bottom of the wells was stained with 1 weight % crystal violet (1 weight % solution in water). The bound dye was dissolved with 5% vol. acetic acid (5% vol. solution in water). Quantification of the stained biofilm was performed by measuring the absorbance at 630 nm using a Multiskan Ascent microplate reader (Thermo Scientific). […] The experiment was carried out on three different days (thus providing 3 biological replicas) and each day the experiment was carried out in quadruple (thus providing 4 technical replicas) for each combination of bacterium with glycoside and for each control. For each day and for each combination, the average (mean) of the values obtained (as detailed above) for the four technical replicas was calculated to provide a single value for each combination on each day. The values shown in Tables 7 to 8, below, are the average (mean) of the three single values obtained for each combination of bacterium with glycoside.
# Actinomyces viscosus = test: Twenty-four hour biofilm growth (crystal violet); details: 24 hours, control = 1
# Description: as §2
# Capnocytophaga sputigena = test: Twenty-four hour biofilm growth (crystal violet); details: 24 hours, control = 1
# Description: as §2
# Porphyromonas gingivalis [4] = test: Twenty-four hour biofilm growth (crystal violet); details: 24 hours, control = 1
# Description: as §2
# Streptococcus mitis [5] = test: Twenty-four hour biofilm growth (crystal violet); details: 24 hours, control = 1
# Description: as §2
# Tannerella forsythia = test: Twenty-four hour biofilm growth (crystal violet); details: 24 hours, control = 1
# Description: as §2
smiles,measurement,setting,value
CO[C@H]1O[C@H](CO)[C@H](O)[C@H](O)[C@H]1O [α-methyl-D-galactoside],maximal OD630 divided by control (extent of growth),[1]; 5 μmol/ml,0.7382
same,maximal OD630 divided by control (extent of growth),[1]; 10 μmol/ml,0.7398
same,maximal OD630 divided by control (extent of growth),[1]; 20 μmol/ml,0.7462
same,maximal OD630 divided by control (extent of growth),[1]; 25 μmol/ml,0.7395
same,maximal OD630 divided by control (extent of growth),Porphyromonas gingivalis [2]; 5 μmol/ml,0.9298
same,maximal OD630 divided by control (extent of growth),Porphyromonas gingivalis [2]; 10 μmol/ml,0.9747
same,maximal OD630 divided by control (extent of growth),Porphyromonas gingivalis [2]; 20 μmol/ml,0.9132
same,maximal OD630 divided by control (extent of growth),Porphyromonas gingivalis [2]; 25 μmol/ml,0.9353
same,maximal OD630 divided by control (extent of growth),Streptococcus gordonii; 5 μmol/ml,0.9997
same,maximal OD630 divided by control (extent of growth),Streptococcus gordonii; 10 μmol/ml,0.9966
same,maximal OD630 divided by control (extent of growth),Streptococcus gordonii; 20 μmol/ml,1.0089
same,maximal OD630 divided by control (extent of growth),Streptococcus gordonii; 25 μmol/ml,1.0255
same,maximal OD630 divided by control (extent of growth),Streptococcus mitis [3]; 5 μmol/ml,0.9303
same,maximal OD630 divided by control (extent of growth),Streptococcus mitis [3]; 10 μmol/ml,0.9337
same,maximal OD630 divided by control (extent of growth),Streptococcus mitis [3]; 20 μmol/ml,0.8843
same,maximal OD630 divided by control (extent of growth),Streptococcus mitis [3]; 25 μmol/ml,0.8855
same,maximal OD630 divided by control (extent of growth),Streptococcus mutans; 5 μmol/ml,0.9703
same,maximal OD630 divided by control (extent of growth),Streptococcus mutans; 10 μmol/ml,0.9003
same,maximal OD630 divided by control (extent of growth),Streptococcus mutans; 20 μmol/ml,0.4212
same,maximal OD630 divided by control (extent of growth),Streptococcus mutans; 25 μmol/ml,0.2492
same,maximal OD630 divided by control (extent of growth),Streptococcus salivarius; 5 μmol/ml,0.8965
same,maximal OD630 divided by control (extent of growth),Streptococcus salivarius; 10 μmol/ml,0.8910
same,maximal OD630 divided by control (extent of growth),Streptococcus salivarius; 20 μmol/ml,0.8640
same,maximal OD630 divided by control (extent of growth),Streptococcus salivarius; 25 μmol/ml,0.8725
same,biofilm OD 630 nm divided by control (biofilm growth),Actinomyces naeslundii; 5 μmol/ml,0.9655
same,biofilm OD 630 nm divided by control (biofilm growth),Actinomyces naeslundii; 10 μmol/ml,0.9764
same,biofilm OD 630 nm divided by control (biofilm growth),Actinomyces naeslundii; 20 μmol/ml,0.9692
same,biofilm OD 630 nm divided by control (biofilm growth),Actinomyces naeslundii; 25 μmol/ml,0.9789
same,biofilm OD 630 nm divided by control (biofilm growth),Actinomyces viscosus; 5 μmol/ml,0.7268
same,biofilm OD 630 nm divided by control (biofilm growth),Actinomyces viscosus; 10 μmol/ml,0.7293
same,biofilm OD 630 nm divided by control (biofilm growth),Actinomyces viscosus; 20 μmol/ml,0.7490
same,biofilm OD 630 nm divided by control (biofilm growth),Actinomyces viscosus; 25 μmol/ml,0.6777
same,biofilm OD 630 nm divided by control (biofilm growth),Capnocytophaga sputigena; 5 μmol/ml,0.9689
same,biofilm OD 630 nm divided by control (biofilm growth),Capnocytophaga sputigena; 10 μmol/ml,1.0025
same,biofilm OD 630 nm divided by control (biofilm growth),Capnocytophaga sputigena; 20 μmol/ml,1.1142
same,biofilm OD 630 nm divided by control (biofilm growth),Capnocytophaga sputigena; 25 μmol/ml,0.9669
same,biofilm OD 630 nm divided by control (biofilm growth),Porphyromonas gingivalis [4]; 5 μmol/ml,0.9047
same,biofilm OD 630 nm divided by control (biofilm growth),Porphyromonas gingivalis [4]; 10 μmol/ml,0.9772
same,biofilm OD 630 nm divided by control (biofilm growth),Porphyromonas gingivalis [4]; 20 μmol/ml,0.9820
same,biofilm OD 630 nm divided by control (biofilm growth),Porphyromonas gingivalis [4]; 25 μmol/ml,1.0029
same,biofilm OD 630 nm divided by control (biofilm growth),Streptococcus mitis [5]; 5 μmol/ml,1.4898
same,biofilm OD 630 nm divided by control (biofilm growth),Streptococcus mitis [5]; 10 μmol/ml,1.2441
same,biofilm OD 630 nm divided by control (biofilm growth),Streptococcus mitis [5]; 20 μmol/ml,1.3917
same,biofilm OD 630 nm divided by control (biofilm growth),Streptococcus mitis [5]; 25 μmol/ml,1.2800
same,biofilm OD 630 nm divided by control (biofilm growth),Tannerella forsythia; 5 μmol/ml,0.7627
same,biofilm OD 630 nm divided by control (biofilm growth),Tannerella forsythia; 10 μmol/ml,1.0506
same,biofilm OD 630 nm divided by control (biofilm growth),Tannerella forsythia; 20 μmol/ml,0.8302
same,biofilm OD 630 nm divided by control (biofilm growth),Tannerella forsythia; 25 μmol/ml,1.0929
